Assay results: US20130012432A1, “Peptides for Treatment of Obesity” (Novo Nordisk A/S, priority 2010, published 2013)
pKi: −log10 of the molar value. Values after ≈ are worked out from the molar mass of the structure shown. Positions of bridges follow the written chain, without caps; N, C: chain ends. Non-standard residues stand in square brackets, D forms with d. Residues, ends and D or L forms follow the SMILES beside them. Groups on a side chain read outwards from the residue. ξ: configuration not given here. *: point of attachment. Palmitoyl(16-(5-tetrazolyl)) = O=C(CCCCCCCCCCCCCCCc1nnn[nH]1)*; Lys(CH2CO2H)2 = N[C@@H](CCCCN(CC(=O)O)CC(=O)O)C(=O)O; C17 diacid = O=C(O)CCCCCCCCCCCCCCCC(=O)*; Hyp = O=C(O)[C@@H]1C[C@@H](O)CN1; NTA = O=C(O)CN(CC(=O)O)CC(=O)*; ξH = NC(Cc1c[nH]cn1)C(=O)O; hCys = N[C@@H](CCS)C(=O)O; Orn = NCCC[C@H](N)C(=O)O; Dap = NC[C@H](N)C(=O)O; AEEA = NCCOCCOCC(=O)O; ξK = NCCCCC(N)C(=O)O

Assays:
MC1 receptor = MC1 receptor (Homo sapiens, UniProt Q01726); test: biochemical
Method in brief: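 Radioligand competition on membranes (25 μg/ml) of BHK cells stably expressing MC1, with 22 pM final 125I-NDP-α-MSH in 25 mM HEPES pH 7.4, Ca/Mg, EDTA, 0.1% HSA (or ovalbumin), 0.005% Tween 20. Incubated 90 min at 30 °C, filtered over PEI-treated GF/B; curves fitted by non-linear regression.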

physchem = test: physchem
Procedure: From a stock solution in vehicle, either H2O or 10 mM phosphate, containing 1 mg (as weighed) compound per ml, 8-11 aliquots are withdrawn and pH-adjusted individually with HCl/NaOH, to cover the whole pH range.

MC1 receptor, sequence (Q01726 whole entry): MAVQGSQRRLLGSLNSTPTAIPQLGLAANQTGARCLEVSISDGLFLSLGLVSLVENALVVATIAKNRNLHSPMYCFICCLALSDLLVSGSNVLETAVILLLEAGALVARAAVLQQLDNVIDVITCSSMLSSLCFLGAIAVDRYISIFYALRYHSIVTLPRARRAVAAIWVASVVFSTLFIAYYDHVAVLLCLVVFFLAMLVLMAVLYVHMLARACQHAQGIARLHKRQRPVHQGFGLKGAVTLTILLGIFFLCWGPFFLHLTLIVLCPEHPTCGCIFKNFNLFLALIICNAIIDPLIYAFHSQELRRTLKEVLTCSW

SMILES	pKi (MC1 receptor)	solubility (physchem; pH 6.3, Solubility Conc.)	solubility (physchem; pH 6.7, Solubility Conc.)	solubility (physchem; pH 7.2, Solubility Conc.)	solubility (physchem; pH 7.4, Solubility Conc.)	solubility (physchem; pH 7.6, Solubility Conc.)	solubility (physchem; pH 8, Solubility Conc.)	solubility (physchem; pH 6.8, Solubility Conc.)	solubility (physchem; pH 7, Solubility Conc.)	solubility (physchem; pH 6.4, Solubility Conc.)	solubility (physchem; pH 7.3, Solubility Conc.)	further results
CC(=O)N[C@H]1CCCCNC(=O)CC[C@@H](C(=O)N2CCC[C@H]2C(=O)N2CCC[C@H]2C(=O)N[C@@H](Cc2c[nH]cn2)C(=O)N[C@@H](CCC(=O)O)C(=O)N[C@@H](CCCCN(CC(=O)O)CC(=O)O)C(=O)N[C@@H](CCCCNC(=O)COCCOCCNC(=O)CCCCCCCCCCCCCCCC(=O)O)C(N)=O)NC(=O)[C@H](Cc2c[nH]c3ccccc23)NC(=O)[C@H](CCCNC(=N)N)NC(=O)[C@@H](Cc2ccccc2)NC(=O)[C@H](Cc2c[nH]cn2)NC1=O [Example 7, Ac-c[Lys-His-D-Phe-Arg-Trp-Glu]-Pro-Pro-His-Glu-Lys(biscarboxymethyl)-Lys({2-[2-(16-carboxyhexadecanoylamino)ethoxy]ethoxy}acetyl)-NH2] (Ac-KH[dF]RWEPPHE[Lys(CH2CO2H)2]K([AEEA-C17 diacid])-NH2; lactam 1-6)	< 5.00	173 µM (≈ 378 µg/mL)	408 µM (≈ 892 µg/mL)	417 µM (≈ 911 µg/mL)	438 µM (≈ 957 µg/mL)	448 µM (≈ 979 µg/mL)	436 µM (≈ 953 µg/mL)					solubility (physchem; pH 5.8, Solubility Conc.): 121 µM (≈ 264 µg/mL); solubility (physchem; pH 6.6, Solubility Conc.): 295 µM (≈ 645 µg/mL); solubility (physchem; pH 6.9, Solubility Conc.): 434 µM (≈ 949 µg/mL)
CC(=O)N[C@H]1CCCNC(=O)CC[C@@H](C(=O)N2CCC[C@H]2C(=O)N2CCC[C@H]2C(=O)N[C@@H](Cc2c[nH]cn2)C(=O)N[C@@H](CCC(=O)O)C(=O)N[C@@H](CCCCN(CC(=O)O)CC(=O)O)C(=O)N[C@@H](CCCCNC(=O)COCCOCCNC(=O)CCCCCCCCCCCCCCCC(=O)O)C(N)=O)NC(=O)[C@H](Cc2c[nH]c3ccccc23)NC(=O)[C@H](CCCNC(=N)N)NC(=O)[C@@H](Cc2ccccc2)NC(=O)[C@H](Cc2c[nH]cn2)NC1=O [Example 22, Ac-c[Orn-His-D-Phe-Arg-Trp-Glu]-Pro-Pro-His-Glu-Lys(biscarboxymethyl)-Lys({2-[2-(16-carboxyhexadecanoylamino)ethoxy]ethoxy}acetyl)-NH2] (Ac-[Orn]H[dF]RWEPPHE[Lys(CH2CO2H)2]K([AEEA-C17 diacid])-NH2; lactam 1-6)	< 5.00	173 µM (≈ 376 µg/mL)	284 µM (≈ 617 µg/mL)	447 µM (≈ 971 µg/mL)	438 µM (≈ 951 µg/mL)		468 µM (≈ 1020 µg/mL)	444 µM (≈ 964 µg/mL)				solubility (physchem; pH 6.1, Solubility Conc.): 134 µM (≈ 291 µg/mL); solubility (physchem; pH 6.9, Solubility Conc.): 443 µM (≈ 962 µg/mL)
CC(=O)N[C@H]1CCCNC(=O)C[C@@H](C(=O)N2CCC[C@H]2C(=O)N[C@@H](CO)C(=O)NC(CCCCN)C(=O)N[C@@H](CCC(=O)O)C(=O)N[C@@H](CCC(=O)O)C(=O)N[C@@H](CO)C(=O)N[C@@H](CO)C(=O)N[C@@H](CCCCNC(=O)COCCOCCNC(=O)CCCCCCCCCCCCCCCC(=O)O)C(N)=O)NC(=O)CNC(=O)[C@H](Cc2c[nH]c3ccccc23)NC(=O)[C@H](CCCNC(=N)N)NC(=O)[C@@H](Cc2ccccc2)NC(=O)C(Cc2c[nH]cn2)NC(=O)[C@H](CCC(=O)O)NC1=O (stereo partly drawn) [Example 40] (Ac-[Orn]E[ξH][dF]RWGDPS[ξK]EESSK([AEEA-C17 diacid])-NH2; lactam 1-8)	< 5.00	501 µM (≈ 1190 µg/mL)	493 µM (≈ 1180 µg/mL)		499 µM (≈ 1190 µg/mL)	489 µM (≈ 1170 µg/mL)	488 µM (≈ 1160 µg/mL)		505 µM (≈ 1200 µg/mL)			solubility (physchem; pH 5.9, Solubility Conc.): 266 µM (≈ 634 µg/mL); solubility (physchem; pH 6.5, Solubility Conc.): 512 µM (≈ 1220 µg/mL); solubility (physchem; pH 8.2, Solubility Conc.): 503 µM (≈ 1200 µg/mL)
CC(=O)N[C@H]1CCC(=O)NCCC[C@@H](C(=O)N2CCC[C@H]2C(=O)N2CCC[C@H]2C(=O)N[C@@H](CCCNC(=N)N)C(=O)N[C@@H](CC(=O)O)C(=O)N[C@@H](CCCCN(CC(=O)O)CC(=O)O)C(=O)N[C@@H](CCCCNC(=O)COCCOCCNC(=O)CCCCCCCCCCCCCCCc2nnn[nH]2)C(N)=O)NC(=O)[C@H](Cc2c[nH]c3ccccc23)NC(=O)[C@H](CCCNC(=N)N)NC(=O)[C@@H](Cc2ccccc2)NC(=O)[C@H](CCC(N)=O)NC1=O [Example 37, Ac-c[Glu-Gln-D-Phe-Arg-Trp-Orn]-Pro-Pro-Arg-Asp-Lys(biscarboxymethyl)-Lys[(2-{2-[16-(tetrazol-5-yl)hexadecanoylamino]ethoxy}ethoxy)acetyl]-NH2] (Ac-EQ[dF]RW[Orn]PPRD[Lys(CH2CO2H)2]K([AEEA-Palmitoyl(16-(5-tetrazolyl))])-NH2; lactam 1-6)	< 5.00			482 µM (≈ 1060 µg/mL)		467 µM (≈ 1020 µg/mL)		453 µM (≈ 993 µg/mL)	510 µM (≈ 1120 µg/mL)	464 µM (≈ 1020 µg/mL)	486 µM (≈ 1070 µg/mL)	solubility (physchem; pH 5.7, Solubility Conc.): 95 µM (≈ 208 µg/mL); solubility (physchem; pH 6.6, Solubility Conc.): 450 µM (≈ 986 µg/mL); solubility (physchem; pH 7.5, Solubility Conc.): 458 µM (≈ 1000 µg/mL); solubility (physchem; pH 7.9, Solubility Conc.): 507 µM (≈ 1110 µg/mL)
CC(=O)N[C@H]1CCSSC[C@@H](C(=O)N2CCC[C@H]2C(=O)N2CCC[C@H]2C(=O)N[C@@H](CCCCN)C(=O)N[C@@H](CC(=O)O)C(=O)N[C@@H](CNC(=O)CN(CC(=O)O)CC(=O)O)C(=O)N[C@@H](CCCCNC(=O)COCCOCCNC(=O)CCCCCCCCCCCCCCCc2nnn[nH]2)C(N)=O)NC(=O)[C@H](Cc2c[nH]c3ccccc23)NC(=O)[C@H](CCCNC(=N)N)NC(=O)[C@@H](Cc2ccccc2)NC(=O)[C@@H]2C[C@@H](O)CN2C1=O [Example 67, Ac-c[homoCys-Hyp-D-Phe-Arg-Trp-Cys]-Pro-Pro-Lys-Asp-Dap(BCMA)-Lys[(2-{2-[16-(tetrazol-5-yl)hexadecanoylamino]ethoxy}ethoxy)acetyl]-NH2] (Ac-[hCys][Hyp][dF]RWCPPKD[Dap](NTA)K([AEEA-Palmitoyl(16-(5-tetrazolyl))])-NH2; disulfide 1-6)	< 5.00	482 µM (≈ 1040 µg/mL)						587 µM (≈ 1270 µg/mL)		533 µM (≈ 1150 µg/mL)	590 µM (≈ 1270 µg/mL)	solubility (physchem; pH 3.3, Solubility Conc.): 600 µM (≈ 1290 µg/mL); solubility (physchem; pH 3.4, Solubility Conc.): 420 µM (≈ 906 µg/mL); solubility (physchem; pH 3.6, Solubility Conc.): 250 µM (≈ 539 µg/mL); solubility (physchem; pH 4.1, Solubility Conc.): 37 µM (≈ 79.8 µg/mL); solubility (physchem; pH 5.4, Solubility Conc.): 38 µM (≈ 81.9 µg/mL); solubility (physchem; pH 5.9, Solubility Conc.): 207 µM (≈ 446 µg/mL)
CC(=O)N[C@H]1CCC(=O)NCCCC[C@@H](C(=O)N2C[C@H](O)C[C@H]2C(=O)N2C[C@H](O)C[C@H]2C(=O)N[C@@H](CCCNC(=N)N)C(=O)N[C@@H](CC(=O)O)C(=O)N[C@@H](CCCCN(CC(=O)O)CC(=O)O)C(=O)N[C@@H](CCCCNC(=O)COCCOCCNC(=O)CCCCCCCCCCCCCCCc2nnn[nH]2)C(N)=O)NC(=O)[C@H](Cc2c[nH]c3ccccc23)NC(=O)[C@H](CCCNC(=N)N)NC(=O)[C@@H](Cc2ccccc2)NC(=O)[C@H](Cc2c[nH]cn2)NC1=O [Example 48, Ac-c[Glu-His-D-Phe-Arg-Trp-Lys]-Hyp-Hyp-Arg-Asp-Lys(biscarboxymethyl)-Lys[(2-{2-[16-(tetrazol-5-yl)hexadecanoylamino]ethoxy}ethoxy)acetyl]-NH2] (Ac-EH[dF]RWK[Hyp][Hyp]RD[Lys(CH2CO2H)2]K([AEEA-Palmitoyl(16-(5-tetrazolyl))])-NH2; lactam 1-6)	< 5.00		54 µM (≈ 121 µg/mL)		309 µM (≈ 694 µg/mL)	416 µM (≈ 935 µg/mL)	420 µM (≈ 944 µg/mL)		107 µM (≈ 240 µg/mL)		218 µM (≈ 490 µg/mL)	solubility (physchem; pH 7.5, Solubility Conc.): 368 µM (≈ 827 µg/mL); solubility (physchem; pH 7.8, Solubility Conc.): 430 µM (≈ 966 µg/mL); solubility (physchem; pH 8.1, Solubility Conc.): 418 µM (≈ 939 µg/mL); solubility (physchem; pH 8.3, Solubility Conc.): 412 µM (≈ 926 µg/mL)
CC(=O)N[C@H]1CCCCNC(=O)C[C@@H](C(=O)N2CCC[C@H]2C(=O)N2CCC[C@H]2C(=O)N[C@@H](CCCNC(=N)N)C(=O)N[C@@H](CC(=O)O)C(=O)N[C@@H](CCCCN(CC(=O)O)CC(=O)O)C(=O)N[C@@H](CCCCNC(=O)COCCOCCNC(=O)CCCCCCCCCCCCCCCc2nnn[nH]2)C(N)=O)NC(=O)[C@H](Cc2c[nH]c3ccccc23)NC(=O)[C@H](CCCNC(=N)N)NC(=O)[C@@H](Cc2ccccc2)NC(=O)[C@H](Cc2c[nH]cn2)NC1=O [Example 11, Ac-c[Lys-His-D-Phe-Arg-Trp-Asp]-Pro-Pro-Arg-Asp-Lys(biscarboxymethyl)-Lys[(2-{2-[16-(tetrazol-5-yl)hexadecanoylamino]ethoxy}ethoxy)acetyl]-NH2] (Ac-KH[dF]RWDPPRD[Lys(CH2CO2H)2]K([AEEA-Palmitoyl(16-(5-tetrazolyl))])-NH2; lactam 1-6)	< 5.00			364 µM (≈ 801 µg/mL)		472 µM (≈ 1040 µg/mL)			147 µM (≈ 323 µg/mL)	36 µM (≈ 79.2 µg/mL)	479 µM (≈ 1050 µg/mL)	solubility (physchem; pH 4.8, Solubility Conc.): 51 µM (≈ 112 µg/mL); solubility (physchem; pH 5.3, Solubility Conc.): 29 µM (≈ 63.8 µg/mL); solubility (physchem; pH 6, Solubility Conc.): 25 µM (≈ 55 µg/mL); solubility (physchem; pH 7.8, Solubility Conc.): 479 µM (≈ 1050 µg/mL)
